EC50 data for 21 compounds are collected here from US7906655B2, “Hepatitis C virus inhibitors” (Bristol-Myers Squibb Company, priority 2008, dated 2011).

Some results are limits rather than exact numbers.

In one assay the test system is HCV 1b genotype. The assay is described as follows: HCV Replicon assay (HCV-neo replicon cells, wild-type). It is filed as cell-based. The note with it: HCV 1b genotype replicon; class symbols. As to the method:
An HCV Replicon assay was utilized in the present disclosure, and was prepared, conducted and validated as described in commonly owned PCT/US2006/022197 and in O'Boyle et. al. Antimicrob Agents Chemother. 2005 April; 49 (4):1346-53. Assay methods incorporating luciferase reporters have also been used as described (Apath.com).
HCV-neo replicon cells and replicon cells containing mutations in the NS5A region were used to test the currently described family of compounds. The compounds were determined to have more than 10-fold less inhibitory activity on cells containing mutations than wild-type cells. Thus, the compounds of the present disclosure can be effective in inhibiting the function of the HCV NS5A protein and are understood to be as effective in combinations as previously described in application PCT/US2006/022197 and commonly owned WO/O4014852. Further, the compounds of the present disclosure can be effective against the HCV 1b genotype. It should also be understood that the compounds of the present disclosure can inhibit multiple genotypes of HCV. […] In one embodiment, compounds of the present disclosure are inhibitory versus 1a, 1b, 2a, 2b, 3a, 4a, and 5a genotypes.
(In general: A replicon is a self-replicating genome or part of one, used to study replication in cells.)
With `CN(C)[C@@H](C(=O)N1CCC[C@H]1c1nc2cc(-c3cnc(-c4cccc5[nH]c([C@@H]6C[C@@H]7C[C@@H]7N6C(=O)[C@@H](c6ccccc6)N(C)C)nc45)o3)ccc2[nH]1)c1ccccc1` (single isomer, unassigned) [Example J25.a], the EC50 lay in the range of 4.57 to 99 nM.
For the compound `COC(=O)N[C@@H](C(=O)N1C2C[C@@H]2C[C@H]1c1nc2cc(-c3ccc(-c4ccc5[nH]c([C@@H]6C[C@H]7CC7N6C(=O)[C@H](NC(=O)OC)c6ccccc6)nc5c4)cc3)ccc2[nH]1)c1ccccc1` (single isomer, unassigned) [Example M46.2], the concentration giving a half-maximal response (EC50) is under 4.57 nM.

Still in this assay, the particulars now being: Hepatitis C virus, HCV 1b genotype replicon; class symbols.
`COC(=O)N[C@@H](C(=O)N1CCC[C@H]1c1nc2c(-c3ncc(-c4ccc5[nH]c([C@@H]6CCCN6C(=O)[C@H](NC(C)=O)c6ccccc6)nc5c4)o3)cccc2[nH]1)c1ccccc1` (mixture of isomers) [Example J6.1, methyl ((1R)-2-((2S)-2-(4-(5-(2-((2S)-1-(acetamido (phenyl)acetyl)-2-pyrrolidinyl)-1H-benzimidazol-5-yl)-1,3-oxazol-2-yl)-1H-benzimidazol-2-yl)-1-pyrrolidinyl)-2-oxo-1-phenylethyl) carbamate]: the EC50 was under 4.57 nM.
With `CC(=O)NC(C(=O)N1CCC[C@H]1c1nc2cc(-c3cnc(-c4cccc5[nH]c([C@@H]6CCCN6C(=O)C(NC(C)=O)c6ccccc6)nc45)o3)ccc2[nH]1)c1ccccc1` (mixture of isomers) [Example J12.1, N-((1R)-2-((2S)-2-(4-(5-(2-((2S)-1-((2R)-2-acetamido-2-phenylacetyl)-2-pyrrolidinyl)-1H-benzimidazol-5-yl)-1,3-oxazol-2-yl)-1H-benzimidazol-2-yl)-1-pyrrolidinyl)-2-oxo-1-phenylethyl) acetamide], the EC50 was 4.57 to 99 nM.
Consider `CN(C)[C@@H](C(=O)N1CCC[C@H]1c1nc2cc(-c3cnc(-c4cccc5[nH]c([C@@H]6C[C@@H]7C[C@@H]7N6C(=O)[C@@H](c6ccccc6)N(C)C)nc45)o3)ccc2[nH]1)c1ccccc1` (single isomer, unassigned) [Example J25], for which the half-maximal effective concentration (EC50) is under 4.57 nM.
Consider `COC(=O)N[C@@H](C(=O)N1C2C[C@@H]2C[C@H]1c1nc2cc(-c3ccc(-c4ccc5[nH]c([C@@H]6C[C@H]7CC7N6C(=O)[C@H](NC(=O)OC)c6ccccc6)nc5c4)cc3)ccc2[nH]1)c1ccccc1` (single isomer, unassigned) [Example M46.1], for which the 50% effective concentration (EC50) is under 4.57 nM.
`CC(=O)N1CCN(C(=O)OCc2ccccc2)[C@H](c2nc3cc(CCc4ccc5[nH]c([C@@H]6CN(C(C)=O)CCN6C(=O)OCc6ccccc6)nc5c4)ccc3[nH]2)C1` (stereo in doubt) [OL11, benzyl 4-acetyl-2-(5-(2-(2-(4-acetyl-1-((benzyloxy)carbonyl)-2-piperazinyl)-1H-benzimidazol-6-yl)ethyl)-1H-benzimidazol-2-yl)-1-piperazinecarboxylate]: the half-maximal effective concentration (EC50) lay within 100 to 999 nM.
For the compound `CN(C)C(C(=O)N1CCC[C@H]1c1nc2ccc(-c3ccc4[nH]c([C@@H]5CCCN5C(=O)[C@@H](c5ccccc5)N(C)C)nc4c3)cc2[nH]1)c1ccccc1` (stereo partly drawn) [Example F1, (1R,1′R)-2,2′-(1H,1′H-5,5′-bibenzimidazole-2,2′-diyldi(2S)-2,1-pyrrolidinediyl)bis(N,N-dimethyl-2-oxo-1-phenylethanamine)], the EC50 was under 4.57 nM.
For the compound `COC(=O)N[C@@H](C(=O)N1CCC[C@H]1c1nc2cc(-c3ccc4nc([C@@H]5CCCN5C(=O)[C@H](NC(=O)OC)c5ccccc5)[nH]c4c3)ccc2[nH]1)c1ccccc1` [Example F2, dimethyl(1H,1′H-5,5′-bibenzimidazole-2,2′-diylbis((2S)-2,1-pyrrolidinediyl((1R)-2-oxo-1-phenyl-2,1-ethanediyl)))biscarbamate], the concentration for a half-maximal effect (EC50) is under 4.57 nM.
Take `O=C(Cc1ccccc1)N1CCCC[C@H]1c1nc2ccc(CCc3ccc4nc([C@@H]5CCCCN5C(=O)Cc5ccccc5)[nH]c4c3)cc2[nH]1` [Example F3, 5,5′-(1,2-ethanediyl)bis(2-((2S)-1-(phenylacetyl)-2-piperidinyl)-1H-benzimidazole)]: the EC50 lay within 100 to 999 nM.
As for `CO[C@@H]1C[C@@H](c2nc3cc(CCc4ccc5nc([C@@H]6C[C@@H](OC)CN6C(=O)OCc6ccccc6)[nH]c5c4)ccc3[nH]2)N(C(=O)OCc2ccccc2)C1` [Example F4, benzyl (2S,4R)-2-(5-(2-(2-((2S,4R)-1-((benzyloxy)carbonyl)-4-methoxy-2-pyrrolidinyl)-1H-benzimidazol-6-yl)ethyl)-1H-benzimidazol-2-yl)-4-methoxy-1-pyrrolidinecarboxylate], the half-maximal effective concentration (EC50) is under 4.57 nM.
On to `CCO[C@@H]1C[C@@H](c2nc3cc(CCc4ccc5nc([C@@H]6C[C@@H](OCC)CN6C(=O)OCc6ccccc6)[nH]c5c4)ccc3[nH]2)N(C(=O)OCc2ccccc2)C1` [Example F5, benzyl (2S,4R)-2-(5-(2-(2-((2S,4R)-1-((benzyloxy)carbonyl)-4-ethoxy-2-pyrrolidinyl)-1H-benzimidazol-6-yl)ethyl)-1H-benzimidazol-2-yl)-4-ethoxy-1-pyrrolidinecarboxylate], for which the half-maximal effective concentration (EC50) was 4.57 to 99 nM.
Regarding `CC(=O)N[C@@H](C(=O)N1CCC[C@H]1c1nc2cc(-c3ccc4nc([C@@H]5CCCN5C(=O)[C@H](NC(C)=O)c5ccccc5)[nH]c4c3)ccc2[nH]1)c1ccccc1` [Example F7, N,N′-(1H,1′H-5,5′-bibenzimidazole-2,2′-diylbis((2S)-2,1-pyrrolidinediyl((1R)-2-oxo-1-phenyl-2,1-ethanediyl)))diacetamide], the EC50 was in the range of 4.57 to 99 nM.
Still for that read-out and setting: then `CO[C@@H]1C[C@@H](c2nc3cc(C#Cc4ccc5nc([C@@H]6C[C@@H](OC)CN6C(=O)OCc6ccccc6)[nH]c5c4)ccc3[nH]2)N(C(=O)OCc2ccccc2)C1` [Example F8, benzyl (2S,4R)-2-(5-((2-((2S,4R)-1-((benzyloxy)carbonyl)-4-methoxy-2-pyrrolidinyl)-1H-benzimidazol-6-yl)ethynyl)-1H-benzimidazol-2-yl)-4-methoxy-1-pyrrolidinecarboxylate], with under 4.57 nM.
With `CC(C)(C)O[C@@H]1C[C@@H](c2nc3cc(C#Cc4ccc5nc([C@@H]6C[C@@H](OC(C)(C)C)CN6C(=O)OCc6ccccc6)[nH]c5c4)ccc3[nH]2)N(C(=O)OCc2ccccc2)C1` [Example F10, benzyl (2S,4R)-2-(5-((2-((2S,4R)-1-((benzyloxy)carbonyl)-4-tert-butoxy-2-pyrrolidinyl)-1H-benzimidazol-6-yl)ethynyl)-1H-benzimidazol-2-yl)-4-tert-butoxy-1-pyrrolidinecarboxylate], the concentration for a half-maximal effect (EC50) is 4.57 to 99 nM.
In the case of `O=C(OCc1ccccc1)N1C[C@H](O)C[C@H]1c1nc2cc(C#Cc3ccc4[nH]c([C@@H]5C[C@@H](O)CN5C(=O)OCc5ccccc5)nc4c3)ccc2[nH]1` [Example F11], the EC50 was under 4.57 nM.
On to `COC(=O)N[C@@H](C(=O)N1CCC[C@H]1c1nc2cc(-c3cnc(-c4cccc5[nH]c([C@@H]6CCCN6C(=O)[C@H](NC(=O)OC)c6ccccc6)nc45)o3)ccc2[nH]1)c1ccccc1` [Example J6, Methyl((1R)-2-((2S)-2-(4-(5-(2-((2S)-1-((2R)-2-((methoxycarbonyl)amino)-2-phenylacetyl)-2-pyrrolidinyl)-1H-benzimidazol-5-yl)-1,3-oxazol-2-yl)-1H-benzimidazol-2-yl)-1-pyrrolidinyl)-2-oxo-1-phenylethyl)carbamate], for which the EC50 is under 4.57 nM.
In the case of `O=C(Cc1ccccc1)N1CCC[C@H]1c1nc2cc(-c3cnc(-c4cccc5[nH]c([C@@H]6CCCN6C(=O)Cc6ccccc6)nc45)o3)ccc2[nH]1` [Example J7, 2-((2S)-1-(phenylacetyl)-2-pyrrolidinyl)-4-(5-(2-((2S)-1-(phenylacetyl)-2-pyrrolidinyl)-1H-benzimidazol-5-yl)-1,3-oxazol-2-yl)-1H-benzimidazole], the concentration for a half-maximal effect (EC50) lay in the range of 4.57 to 99 nM.
`COC(=O)N[C@@H](C)C(=O)N1CCC[C@H]1c1nc2cc(-c3cnc(-c4cccc5[nH]c([C@@H]6CCCN6C(=O)[C@H](C)NC(=O)OC)nc45)o3)ccc2[nH]1` [Example J8, methyl ((1S)-2-((2S)-2-(5-(2-(2-((2S)-1-(N-(methoxy-carbonyl)-L-alanyl)-2-pyrrolidinyl)-1H-benzimidazol-4-yl)-1,3-oxazol-5-yl)-1H-benzimidazol-2-yl)-1-pyrrolidinyl)-1-methyl-2-oxoethyl) carbamate]: the EC50 is under 4.57 nM.

Staying with this assay, now noted: Hepatitis C virus, HCV 1b genotype replicon; numeric values.
Regarding `CCCO[C@@H]1C[C@@H](c2nc3cc(CCc4ccc5nc([C@@H]6C[C@@H](OCCC)CN6C(=O)OCc6ccccc6)[nH]c5c4)ccc3[nH]2)N(C(=O)OCc2ccccc2)C1` [Example F6, benzyl (2S,4R)-2-(5-(2-(2-((2S,4R)-1-((benzyloxy)carbonyl)-4-propoxy-2-pyrrolidinyl)-1H-benzimidazol-6-yl)ethyl)-1H-benzimidazol-2-yl)-4-propoxy-1-pyrrolidinecarboxylate], the concentration for a half-maximal effect (EC50) was 480 nM.
Consider `CCO[C@@H]1C[C@@H](c2nc3cc(C#Cc4ccc5nc([C@@H]6C[C@@H](OCC)CN6C(=O)OCc6ccccc6)[nH]c5c4)ccc3[nH]2)N(C(=O)OCc2ccccc2)C1` [Example F9, benzyl (2S,4R)-2-(5-((2-((2S,4R)-1-((benzyloxy)carbonyl)-4-ethoxy-2-pyrrolidinyl)-1H-benzimidazol-6-yl)ethynyl)-1H-benzimidazol-2-yl)-4-ethoxy-1-pyrrolidinecarboxylate], for which the 50% effective concentration (EC50) is 20 nM.

As a reminder, the EC50 is the concentration at which the effect is half-maximal.
